Experimental data reported in US6355799B1, “Substituted benzene compounds, process for their preparation, and herbicidal and defoliant compositions containing them” (ISK Americas Incorporated, priority 1997, dated 2002).

Key:
Type in all cases: in vivo
[1] = system: upland rice (Oryza sp., var. Tebonnet, RICE); test: Pre-emerge test, crop safety; details: crop damage rating 0-100, 14 days after application
In short: (§1)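 Visual ratings on a 0-100 scale (0 no damage, 100 all plants dead) were taken at 14 days after treatment. Rates of 15-1000 g ai/ha in acetone, 187 l/ha, were sprayed onto soil one day after planting (pre-emerge) or onto 2-3 leaf plants with 0.25% v/v surfactant (post-emerge).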

[2] = system: field corn (Zea mays L., var. Dekalb 535, CORN); test: Pre-emerge test, crop safety; details: crop damage rating 0-100, 14 days after application
In short: as §1

[3] = system: upland rice (Oryza sp., var. Tebonnet, RICE); test: Post-emerge test, crop safety; details: post-emerge, 14 days after application, rating scale 0-100
In short: (§2)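 Plants grown in 10 cm pots of sandy loam mix received acetone-dissolved compounds through a moving flat-fan nozzle. Doses ranged from 15 to 1000 g ai/ha. Pre-emerge pots were seeded one day earlier, post-emerge pots 8–21 days earlier. Fourteen days on, each pot was graded 0–100 for damage.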

[4] = system: field corn (Zea mays L., var. Dekalb 535, CORN); test: Post-emerge test, crop safety; details: post-emerge, 14 days after application, rating scale 0-100
In short: as §2

[5] = system: green foxtail (Setaria viridis, SETVI); test: Post-emerge test, greenhouse herbicide activity screening; details: post-emerge, 14 days after application, rating scale 0-100
From the text: (§3) A standard greenhouse herbicide activity screening system was used to evaluate the herbicidal efficacy and crop safety of these test compounds. Seven broadleaf weed species including redroot pigweed (Amaranthus retroflexus, AMARE, velvetleaf (Abutilon theophrasti, ABUTH), sicklepod (Cassia obtusifolia, CASOB), ivyleaf morningglory (Ipomoea hederacea, IPOHE), lambsquarters (Chenopodium album, CHEAL), common ragweed (Ambrosia artemisizfolia L., AMBEL), and cocklebur (Xanthium strumarium, XANST) were used as test species. Four grass weed species including green foxtail (Setaria viridis, SETVI), barnyardgrass (Echinochloa crus-galli, ECHCG), johnsongrass (Sorghum halepense, SORHA), and large crabgrass (Digitaria sanguinalis, DIGSA) were also used. In addition, three crop species, field corn (Zea mays L., var. Dekalb 535, CORN), soybean (Glycine max L., var. Pella 86, SOY), and is upland rice (Oryza sp., var. Tebonnet, RICE) were included.
(§4) All plants were grown in 10 cm square plastic pots which were filled with a sandy loam soil mix. For pre-emerge tests, seeds were planted one day prior to application of the test compounds. For post-emerge tests, seeds were planted 8-21 days prior to the test to allow emergence and good foliage development prior to application of the test substances. At the time of the post-emerge application, plants of all species were usually at the 2-3 leaf stage of development.
(§5) All test compounds Were dissolved in acetone and applied to the test units in a volume of 187 l /ha. Test materials were applied at rates ranging from 15 g ai/ha to 1000 g ai/ha using a track sprayer equipped with a TJ8001E even flow flat fan spray nozzle. Plants were arranged on a shelf so that the top of the canopy (post-emerge) or top of the soil surface (pre-emerge) was 40-45 cm below the nozzle. Pressurized air was used to force the test solution through the nozzle as it was mechanically advanced (via electrically driven chain drive) over the top of all test plants/pots. This application simulates a typical commercial field herbicide application.
(§6) In the post-emerge test, a commercial non-ionic surfactant was also included (0.25% v/v) to enhance wetting of the leaf surfaces of target plants. Immediately after application, test units of the pre-emerge applications were watered at the soil surface to incorporate the test materials. Subsequently, these test units were bottom-watered. Post-emerge test units were always bottom-watered.
(§7) At 14 days after application of the test materials, phytotoxicity ratings were recorded. A rating scale of 0-100 was used as previously described in Research Methods in Weed Science, 2nd edition, B. Truelove, Ed., Southern Weed Science Society, Auburn University, Auburn, Ala. 1977. Briefly, “0” corresponds to no damage and “100” corresponds to complete death of all plants in the test unit. This scale was used both to determine efficacy against weed species and damage to crop species. Herbicide activity data for various compounds of this invention, which are shown by compound No. in Tables 1-8, are shown in Tables 11 and 12.

[6] = system: large crabgrass (Digitaria sanguinalis, DIGSA); test: as above; details: post-emerge, 14 days after application, rating scale 0-100
From the text: as §3, §4, §5, §6, §7

[7] = system: lambsquarters (Chenopodium album, CHEAL); test: as above; details: post-emerge, 14 days after application, rating scale 0-100
From the text: as §3, §4, §5, §6, §7

[8] = system: barnyardgrass (Echinochloa crus-galli, ECHCG); test: as above; details: post-emerge, 14 days after application, rating scale 0-100
From the text: as §3, §4, §5, §6, §7

[9] = system: sicklepod (Cassia obtusifolia, CASOB); test: as above; details: post-emerge, 14 days after application, rating scale 0-100
From the text: as §3, §4, §5, §6, §7

[10] = system: velvetleaf (Abutilon theophrasti, ABUTH); test: as above; details: post-emerge, 14 days after application, rating scale 0-100
From the text: as §3, §4, §5, §6, §7

[11] = system: ivyleaf morningglory (Ipomoea hederacea, IPOHE); test: as above; details: post-emerge, 14 days after application, rating scale 0-100
From the text: as §3, §4, §5, §6, §7

[12] = system: redroot pigweed (Amaranthus retroflexus, AMARE); test: as above; details: post-emerge, 14 days after application
From the text: as §3, §4, §5, §6, §7

[13] = system: redroot pigweed (Amaranthus retroflexus, AMARE); test: Pre-emerge test, greenhouse herbicide activity screening; details: phytotoxicity rating 0-100, 14 days after application
In short: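 Rating: 0–100 visual injury, 14 DAA. Application: acetone, 187 l/ha, 15–1000 g ai/ha, flat-fan track sprayer with nozzle 40–45 cm above soil or canopy. Post-emerge runs used 0.25% v/v surfactant on 2–3 leaf plants.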

[14] = system: green foxtail (Setaria viridis, SETVI); test: as above; details: phytotoxicity rating 0-100, 14 days after application
From the text: as §3, §4, §5, §6, §7

[15] = system: large crabgrass (Digitaria sanguinalis, DIGSA); test: as above; details: phytotoxicity rating 0-100, 14 days after application
From the text: as §3, §4, §5, §6, §7

[16] = system: lambsquarters (Chenopodium album, CHEAL); test: as above; details: phytotoxicity rating 0-100, 14 days after application
From the text: as §3, §4, §5, §6, §7

[17] = system: barnyardgrass (Echinochloa crus-galli, ECHCG); test: as above; details: phytotoxicity rating 0-100, 14 days after application
From the text: as §3, §4, §5, §6, §7

[18] = system: sicklepod (Cassia obtusifolia, CASOB); test: as above; details: phytotoxicity rating 0-100, 14 days after application
From the text: as §3, §4, §5, §6, §7

[19] = system: velvetleaf (Abutilon theophrasti, ABUTH); test: as above; details: phytotoxicity rating 0-100, 14 days after application
From the text: as §3, §4, §5, §6, §7

[20] = system: ivyleaf morningglory (Ipomoea hederacea, IPOHE); test: as above; details: phytotoxicity rating 0-100, 14 days after application
From the text: as §3, §4, §5, §6, §7

[21] = 63 g ai/ha, rating scale 0-100 (0 no damage, 100 complete death)
[22] = 250 g ai/ha, rating scale 0-100

| Compound | Pre-emerge Herbicidal Activity RICE ([1]; 63 g ai/ha) | Pre-emerge Herbicidal Activity RICE ([1]; 250 g ai/ha) | Pre-emerge Herbicidal Activity CORN ([2]; 63 g ai/ha) | Pre-emerge Herbicidal Activity CORN ([2]; 250 g ai/ha) | phytotoxicity rating RICE (crop damage) ([3]; 63 g ai/ha) | phytotoxicity rating RICE (crop damage) ([3]; 250 g ai/ha) | phytotoxicity rating CORN (crop damage) ([4]; 63 g ai/ha) | phytotoxicity rating CORN (crop damage) ([4]; 250 g ai/ha) | phytotoxicity rating SETVI ([5]; 63 g ai/ha) | phytotoxicity rating SETVI ([5]; 250 g ai/ha) | phytotoxicity rating DIGSA ([6]; 63 g ai/ha) | phytotoxicity rating DIGSA ([6]; 250 g ai/ha) | phytotoxicity rating CHEAL ([7]; 63 g ai/ha) | phytotoxicity rating CHEAL ([7]; 250 g ai/ha) | phytotoxicity rating ECHCG ([8]; 63 g ai/ha) | phytotoxicity rating ECHCG ([8]; 250 g ai/ha) | phytotoxicity rating CASOB ([9]; 63 g ai/ha) | phytotoxicity rating CASOB ([9]; 250 g ai/ha) | phytotoxicity rating ABUTH ([10]; 63 g ai/ha) | phytotoxicity rating ABUTH ([10]; 250 g ai/ha) | also measured |
| --- | --- | --- | --- | --- | --- | --- | --- | --- | --- | --- | --- | --- | --- | --- | --- | --- | --- | --- | --- | --- | --- |
| COc1c(Cl)cc(F)c(-n2c(=O)cc(C(F)(F)F)n(C)c2=O)c1NC(=O)OCc1cc(F)ccc1F [4-39] | 80 | 80 | 70 | 90 | 60 | 60 | 70 | 100 | 80 | 90 | 50 | 80 | 100 | 100 | 60 | 90 | 100 | 100 | 100 | 100 | phytotoxicity rating IPOHE ([11]; 63 g ai/ha): 100; phytotoxicity rating IPOHE ([11]; 250 g ai/ha): 100; phytotoxicity rating AMARE [12, 21]: 100; phytotoxicity rating AMARE [12, 22]: 100; Pre-emerge Herbicidal Activity AMARE ([13]; 63 g ai/ha): 100; Pre-emerge Herbicidal Activity AMARE ([13]; 250 g ai/ha): 100; Pre-emerge Herbicidal Activity SETVI ([14]; 63 g ai/ha): 100; Pre-emerge Herbicidal Activity SETVI ([14]; 250 g ai/ha): 100; Pre-emerge Herbicidal Activity DIGSA ([15]; 63 g ai/ha): 100; Pre-emerge Herbicidal Activity DIGSA ([15]; 250 g ai/ha): 100; Pre-emerge Herbicidal Activity CHEAL ([16]; 63 g ai/ha): 100; Pre-emerge Herbicidal Activity CHEAL ([16]; 250 g ai/ha): 100; Pre-emerge Herbicidal Activity ECHCG ([17]; 63 g ai/ha): 60; Pre-emerge Herbicidal Activity ECHCG ([17]; 250 g ai/ha): 80; Pre-emerge Herbicidal Activity CASOB ([18]; 63 g ai/ha): 30; Pre-emerge Herbicidal Activity CASOB ([18]; 250 g ai/ha): 90; Pre-emerge Herbicidal Activity ABUTH ([19]; 63 g ai/ha): 100; Pre-emerge Herbicidal Activity ABUTH ([19]; 250 g ai/ha): 100; Pre-emerge Herbicidal Activity IPOHE ([20]; 63 g ai/ha): 80; Pre-emerge Herbicidal Activity IPOHE ([20]; 250 g ai/ha): 100 |
| COc1c(Cl)cc(F)c(-n2c(=O)cc(C(F)(F)F)n(C)c2=O)c1NC(=O)OC(C)c1ccccc1 (centres unmarked) [4-47] | 20 | 70 | 30 | 90 | 30 | 60 | 30 | 65 | 40 | 60 | 40 | 30 | 100 | 100 | 30 | 50 | 100 | 100 | 100 | 10 | phytotoxicity rating IPOHE ([11]; 63 g ai/ha): 85; phytotoxicity rating IPOHE ([11]; 250 g ai/ha): 100; phytotoxicity rating AMARE [12, 21]: 75; phytotoxicity rating AMARE [12, 22]: 95; Pre-emerge Herbicidal Activity AMARE ([13]; 63 g ai/ha): 70; Pre-emerge Herbicidal Activity AMARE ([13]; 250 g ai/ha): 100; Pre-emerge Herbicidal Activity SETVI ([14]; 63 g ai/ha): 80; Pre-emerge Herbicidal Activity SETVI ([14]; 250 g ai/ha): 100; Pre-emerge Herbicidal Activity DIGSA ([15]; 63 g ai/ha): 70; Pre-emerge Herbicidal Activity DIGSA ([15]; 250 g ai/ha): 100; Pre-emerge Herbicidal Activity CHEAL ([16]; 63 g ai/ha): 100; Pre-emerge Herbicidal Activity CHEAL ([16]; 250 g ai/ha): 100; Pre-emerge Herbicidal Activity ECHCG ([17]; 63 g ai/ha): 60; Pre-emerge Herbicidal Activity ECHCG ([17]; 250 g ai/ha): 98; Pre-emerge Herbicidal Activity CASOB ([18]; 63 g ai/ha): 0; Pre-emerge Herbicidal Activity CASOB ([18]; 250 g ai/ha): 70; Pre-emerge Herbicidal Activity ABUTH ([19]; 63 g ai/ha): 100; Pre-emerge Herbicidal Activity ABUTH ([19]; 250 g ai/ha): 100; Pre-emerge Herbicidal Activity IPOHE ([20]; 63 g ai/ha): 30; Pre-emerge Herbicidal Activity IPOHE ([20]; 250 g ai/ha): 100 |
